The structures appear in SMILES notation.

In one test the target is T1, B1R receptor of the rat (rB1R) (Rattus norvegicus, UniProt P97583).
T1 construct: expressed in transfected cells; host or cells: CHO K1 cells
T1 sequence (P97583 1-337): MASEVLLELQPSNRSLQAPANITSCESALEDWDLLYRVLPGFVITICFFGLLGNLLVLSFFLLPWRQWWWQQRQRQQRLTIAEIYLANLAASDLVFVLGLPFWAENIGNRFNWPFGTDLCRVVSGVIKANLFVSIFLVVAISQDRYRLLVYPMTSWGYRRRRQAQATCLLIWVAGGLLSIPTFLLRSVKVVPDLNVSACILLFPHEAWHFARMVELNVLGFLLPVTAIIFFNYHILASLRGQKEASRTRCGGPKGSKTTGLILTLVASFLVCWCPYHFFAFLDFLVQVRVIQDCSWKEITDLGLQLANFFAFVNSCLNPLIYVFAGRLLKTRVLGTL
The test can be described thus: Functional investigation on the bradykinin 1 receptor (B1R), FLIPR Ca2+ assay, rB1R cells. The note with it: 10 μM test substance; CHO K1 cells with rat B1R; agonist Des-Arg9 bradykinin; % of maximum achievable inhibition. The format is cell-based. As to the method:
The indication in % activation is based on the Ca^2+ signal after addition of Lys-Des-[…] bradykinin (0.5 nM) or Des-[…] bradykinin (100 nM). Antagonists lead to a suppression of the Ca^2+ influx following administration of the agonist. The % inhibition in comparison with the maximum achievable inhibition is indicated. […] According to this assay, the Ca^2+ inflow through the channel is quantified with the aid of a Ca^2+-sensitive dye (Fluo-4 type, Molecular Probes Europe BV, Leiden, Netherlands) in a fluorescent imaging plate reader (FLIPR, Molecular Devices, Sunnyvale, USA). […] For functional investigations these cells are plated-out onto black 96-well plates with a clear base (BD Biosciences, Heidelberg, Germany or Greiner, Frickenhausen, Germany) in a density of 20,000-35,000 cells/well. Overnight the cells are incubated at 37° C. and 5% CO2 in culture medium (hB1R cells: Ham's Nutrient Mixture F12, Gibco Invitrogen GmbH, Karlsruhe, Germany or DMEM, Sigma-Aldrich, Taufkirchen, Germany; rB1R cells: D-MEM/F12, Gibco Invitrogen, Karlsruhe, Germany) with 10 vol. % FBS (foetal bovine serum, Gibco Invitrogen GmbH, Karlsruhe, Germany or PAN Biotech GmbH, Aidenbach, Germany). On the following day the cells are loaded with 2.13 μM Fluo-4 (Molecular Probes Europe BV, Leiden, Netherlands) in HBSS buffer (Hank's buffered saline solution, Gibco Invitrogen GmbH, Karlsruhe, Germany) with 2.5 mM probenecid (Sigma-Aldrich, Taufkirchen, Germany) and 10 mM HEPES (Sigma-Aldrich, Taufkirchen, Germany) for 60 min at 37° C. […] Sigma-Aldrich, Taufkirchen, Germany), 5.6 mM glucose and 0.05% gelatine (Merck KGaA, Darmstadt, Germany) is added. After a further incubation of 20 minutes at room temperature, the plates are inserted into the FLIPR for Ca^2+ measurement. Alternatively they are washed with buffer A (15 mM HEPES, 80 mM NaCl, 5 mM KCl, 1.2 mM CaCl2, 0.7 mM MgSO4, 2 g/l glucose, 2.5 mM probenecid) and loaded with buffer A with added 2.5 μM Fluo-4 and 0.025% Pluronic F127 (Sigma-Aldrich, Taufkirchen, Germany). The cells are then washed twice with buffer A and incubated for 30 minutes with buffer A, which additionally contains 0.05% BSA and 0.05% gelatine, at room temperature and then used for Ca^2+ measurement in the FLIPR. The Ca^2+-dependent fluorescence is measured here before and after addition of substances (λex=488 nm, λem=540 nm). The quantification is performed by measuring the highest fluorescence intensity (FC, fluorescence counts) over time. The FLIPR protocol comprises two additions of substance. […] Lys-Des-[…] bradykinin>=50 nM; rB1R: […] Antagonists lead to a suppression of the Ca^2+ inflow. The % inhibition in comparison with the maximum achievable inhibition is calculated. The substances are added in varying concentrations in order to determine the IC50 value. Double or triple determinations (n=2 or n=3) are performed and these are repeated in at least one further independent experiment (N>=2).
In the case of `COc1cc(C)c(S(=O)(=O)Nc2cccc3ccn(CC(=O)N4CCN(CC5CCN(C)CC5)CC4)c23)c(C)c1` [G_CC-7, 4-Methoxy-2,6-dimethyl-N-[1-[2-[4-[(1-methyl-piperdin-4-yl)-methyl]-piperazin-1-yl]-2-oxo-ethyl]-1H-indol-7-yl]-benzenesulfonic acid amide], the “B1R antagonism, rat [10 μM] % inhibition” value was 100%.

The test is the same for the next values; noted with them: CHO-K1, 10 μM test substance; CHO K1 cells with rat B1R; agonist Des-Arg9 bradykinin; % of maximum achievable inhibition; read-out: B1R antagonism, rat [10 μM] % inhibition.
Turning to `COc1cc(C)c(S(=O)(=O)Nc2cccc3ccn(CCC(=O)NCCN4CCC(c5cccs5)(N(C)C)CC4)c23)c(C)c1` [G_CC-51, N-[2-(4-Dimethylamino-4-thiophen-2-yl-piperidin-1-yl)-ethyl]-3-[7-[[(4-methoxy-2,6-dimethyl-phenyl)sulfonyl]amino]-1H-indol-1-yl]-propionamide], the inhibition at 10 µM came out at 93%.
Still for that read-out and setting: the result for `COc1cc(C)c(S(=O)(=O)Nc2cccc3ccn(CC(=O)N4CCN(C(=O)c5cccnc5)CC4)c23)c(C)c1` [G_CC-139, 4-Methoxy-2,6-dimethyl-N-[1-[2-oxo-2-[4-(pyridin-3-carbonyl)-piperazin-1-yl]-ethyl]-1H-indol-7-yl]-benzenesulfonic acid amide] reads 50%.
The same measure, in the same setting: the result for `COc1cc(C)c(S(=O)(=O)Nc2cccc3ccn(CC(=O)N4CCC5(CC4)C(=O)N(C)CC5c4ccc(F)cc4)c23)c(C)c1` (centres unmarked) [G_CC-31, N-[1-[2-[1-(4-Fluorophenyl)-3-methyl-4-oxo-3,8-diazaspiro[4.5]decan-8-yl]-2-oxo-ethyl]-1H-indol-7-yl]-4-methoxy-2,6-dimethyl-benzenesulfonic acid amide] reads 91%.
For the compound `COc1cc(C)c(S(=O)(=O)Nc2cccc3ccn(CCC(=O)N4CCC(N5CCN(C)CC5)CC4)c23)c(C)c1` [G_CC-42, 4-Methoxy-2,6-dimethyl-N-[1-[3-[4-(4-methyl-piperazin-1-yl)-piperidin-1-yl]-3-oxo-propyl]-1H-indol-7-yl]-benzenesulfonic acid amide], the inhibition at 10 µM stood at 66%.
Same read-out and setting: the figure for `COc1cc(C)c(S(=O)(=O)Nc2ccc3ccn(CC(=O)N4CCC(CCN5CCCC5)CC4)c3c2)c(C)c1` [G_CC-120, 4-Methoxy-2,6-dimethyl-N-[1-[2-oxo-2-[4-(2-pyrrolidin-1-yl-ethyl)-piperidin-1-yl]-ethyl]-1H-indol-6-yl]-benzenesulfonic acid amide] is 72%; for `O=C(CCn1ccc2cccc(NS(=O)(=O)c3ccccc3C(F)(F)F)c21)N1CCC2(CC1)CCN(c1ccncc1)CC2` [G_CC-52, N-[1-[3-Oxo-3-(3-pyridin-4-yl-3,9-diazaspiro[5.5]undecan-9-yl)-propyl]-1H-indol-7-yl]-2-(trifluoromethyl)-benzenesulfonic acid amide] it is 100%; for `COc1cc(C)c(S(=O)(=O)Nc2cccc3ccn(CC(=O)NCCC4CCN(c5ccncc5)CC4)c23)c(C)c1` [G_CC-21, 2-[7-[[(4-Methoxy-2,6-dimethyl-phenyl)sulfonyl]amino]-1H-indol-1-yl]-N-[2-(1-pyridin-4-yl-piperidin-4-yl)-ethyl]-acetamide] it is 97%.
The same measure, in the same setting: the figure for `Cc1cc(S(=O)(=O)Nc2cccc3ccn(CCC(=O)N4CCC(CCN5CCCC5)CC4)c23)c(C)cc1Cl` [G_CC-60, 4-Chloro-2,5-dimethyl-N-[1-[3-oxo-3-[4-(2-pyrrolidin-1-yl-ethyl)-piperidin-1-yl]-propyl]-1H-indol-7-yl]-benzenesulfonic acid amide] is 87%.
The same measure, in the same setting: the result for `COc1cc(C)c(S(=O)(=O)Nc2ccc3ccn(CC(=O)N(C)CCC4CCC(c5ccccc5)(N(C)C)CC4)c3c2)c(C)c1` (centres unmarked) [G_CC-95, N-[2-(4-Dimethylamino-4-phenyl-cyclohexyl)-ethyl]-2-[6-[[(4-methoxy-2,6-dimethyl-phenyl)sulfonyl]amino]-1H-indol-1-yl]-N-methyl-acetamide] reads 96%; that for `COc1cc(C)c(S(=O)(=O)Nc2cccc3ccn(CCC(=O)N4CCN(C5CCN(C)CC5)CC4)c23)c(C)c1` [G_CC-40, 4-Methoxy-2,6-dimethyl-N-[1-[3-[4-(1-methyl-piperidin-4-yl)-piperazin-1-yl]-3-oxo-propyl]-1H-indol-7-yl]-benzenesulfonic acid amide], 86%.

The inhibition is how much of the control response was suppressed.

For the origin of these results see patent publication US8492559B2, “Substituted indole compounds” (Gruenenthal GmbH, priority 2009, dated 2013).
